Activity calls are given as the source filed them.
Columns and labels:
Aspartyl aminopeptidase = Aspartyl aminopeptidase (Plasmodium falciparum 3D7, UniProt Q8I2J3)
Procathepsin L = Procathepsin L (Homo sapiens, UniProt P07711)
[1] = molecular target: T1, Voltage-gated N-type calcium channel alpha-1B subunit/Amyloid beta A4 precursor protein-binding family A member 1 (Homo sapiens, UniProt Q00975+Q02410); format: protein assay
[2] = molecular target: T1, Voltage-gated N-type calcium channel alpha-1B subunit/Amyloid beta A4 precursor protein-binding family A member 1; format: protein assay; remark: listed apart in the source
[3] = growth suppression of PTEN-null colon cells, dose response, cell-based, HCT116 PTEN knockout (AID 1047); format: functional;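 also: HCT116 colon tumor cells with PTEN knocked out; cells exposed to compound for 60 hours before readout; potency for loss of cell viability measured by luminescence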
INS1 = experiment: beta cell apoptosis inhibitors, cytokine rescue, dose response, luminescence, retest (AID 449756); format: functional, cell-based; details: Rattus norvegicus;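 also: cell death triggered by IL-1 beta plus TNF-alpha plus IFN-gamma mixture; protective hits raise ATP signal compared with cytokine alone wells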
[4] = growth suppression of beta-catenin-knockout colon cells, dose response, cell-based, HCT116, human colon tumor (AID 1045); format: functional;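 also: HCT116 colon tumor cells with beta catenin knocked out; cells exposed to compound for 60 hours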
[5] = HEp-2 cell cytotoxicity, dose response, cytotoxicity control for RSV inhibitor project, HTS (AID 2410); format: functional; details: human respiratory syncytial virus
X-box-binding protein 1 = X-box-binding protein 1 (Homo sapiens, UniProt P17861); format: functional, Cricetulus griseus;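 also: confirmatory dose-response counter-screen serving a CHOP assay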
Chain of X-box-binding protein 1 (P17861 whole entry): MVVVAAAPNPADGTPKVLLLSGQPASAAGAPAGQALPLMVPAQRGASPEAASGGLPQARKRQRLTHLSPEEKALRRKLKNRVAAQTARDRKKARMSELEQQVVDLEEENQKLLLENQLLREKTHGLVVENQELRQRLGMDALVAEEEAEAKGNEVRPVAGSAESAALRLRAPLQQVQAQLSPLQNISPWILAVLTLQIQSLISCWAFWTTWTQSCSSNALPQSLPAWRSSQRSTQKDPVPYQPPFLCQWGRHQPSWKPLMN

cells [6] = format: functional
[7] = molecular target: Acyl-homoserine lactone acylase PvdQ (Pseudomonas aeruginosa (strain LESB58), UniProt Q9I194); experiment: P. aeruginosa PvdQ acylase inhibitors, dose response, biochemical, fluorescence, plate reader and imaging, cherry-picks (AID 493231)
Chain of Acyl-homoserine lactone acylase PvdQ (Q9I194 24-193 limits assumed): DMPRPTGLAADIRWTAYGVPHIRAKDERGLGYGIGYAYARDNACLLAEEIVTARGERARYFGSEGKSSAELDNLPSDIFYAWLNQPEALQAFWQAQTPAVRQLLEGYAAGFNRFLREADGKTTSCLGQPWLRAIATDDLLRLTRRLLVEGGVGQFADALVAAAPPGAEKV
Chain of Acyl-homoserine lactone acylase PvdQ (Q9I194 217-762 limits assumed): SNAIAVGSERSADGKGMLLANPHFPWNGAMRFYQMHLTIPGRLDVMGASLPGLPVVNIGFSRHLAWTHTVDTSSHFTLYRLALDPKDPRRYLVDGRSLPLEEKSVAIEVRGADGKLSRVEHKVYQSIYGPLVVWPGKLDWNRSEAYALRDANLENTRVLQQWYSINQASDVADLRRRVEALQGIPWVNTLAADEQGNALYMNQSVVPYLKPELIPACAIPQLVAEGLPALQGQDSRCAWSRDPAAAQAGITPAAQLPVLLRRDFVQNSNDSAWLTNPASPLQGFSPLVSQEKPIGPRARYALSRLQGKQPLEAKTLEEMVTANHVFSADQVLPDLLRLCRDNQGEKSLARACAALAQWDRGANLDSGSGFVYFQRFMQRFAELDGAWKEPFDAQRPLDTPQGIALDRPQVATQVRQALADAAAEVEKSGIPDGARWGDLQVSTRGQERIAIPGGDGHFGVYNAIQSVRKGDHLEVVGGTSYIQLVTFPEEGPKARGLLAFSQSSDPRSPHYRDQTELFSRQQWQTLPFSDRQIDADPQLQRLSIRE

[8] = molecular target: Alkaline phosphatase, placental type (Homo sapiens, UniProt P05187); experiment: PLAP enzyme inhibitors, confirmation, biochemical, luminescence (AID 1512); format: functional
cells [9] = experiment: cells
[10] = inhibitors of Bluetongue virus cytopathic effect, confirmation, arbovirus, BSR cells (AID 1250); format: functional;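 also: protection from viral cytopathic effect measured as cell viability by ATP luminescence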

Chain of Procathepsin L (P07711 whole entry): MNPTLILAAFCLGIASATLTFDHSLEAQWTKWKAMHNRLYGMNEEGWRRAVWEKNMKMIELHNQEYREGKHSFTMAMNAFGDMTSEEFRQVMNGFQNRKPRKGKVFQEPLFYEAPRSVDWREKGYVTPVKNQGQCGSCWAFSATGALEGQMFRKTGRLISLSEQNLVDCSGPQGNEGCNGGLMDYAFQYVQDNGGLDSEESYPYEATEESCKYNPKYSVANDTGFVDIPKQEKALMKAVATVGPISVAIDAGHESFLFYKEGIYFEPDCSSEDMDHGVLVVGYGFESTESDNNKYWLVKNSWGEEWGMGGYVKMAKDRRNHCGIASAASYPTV
T1 sequence (Q00975 whole entry): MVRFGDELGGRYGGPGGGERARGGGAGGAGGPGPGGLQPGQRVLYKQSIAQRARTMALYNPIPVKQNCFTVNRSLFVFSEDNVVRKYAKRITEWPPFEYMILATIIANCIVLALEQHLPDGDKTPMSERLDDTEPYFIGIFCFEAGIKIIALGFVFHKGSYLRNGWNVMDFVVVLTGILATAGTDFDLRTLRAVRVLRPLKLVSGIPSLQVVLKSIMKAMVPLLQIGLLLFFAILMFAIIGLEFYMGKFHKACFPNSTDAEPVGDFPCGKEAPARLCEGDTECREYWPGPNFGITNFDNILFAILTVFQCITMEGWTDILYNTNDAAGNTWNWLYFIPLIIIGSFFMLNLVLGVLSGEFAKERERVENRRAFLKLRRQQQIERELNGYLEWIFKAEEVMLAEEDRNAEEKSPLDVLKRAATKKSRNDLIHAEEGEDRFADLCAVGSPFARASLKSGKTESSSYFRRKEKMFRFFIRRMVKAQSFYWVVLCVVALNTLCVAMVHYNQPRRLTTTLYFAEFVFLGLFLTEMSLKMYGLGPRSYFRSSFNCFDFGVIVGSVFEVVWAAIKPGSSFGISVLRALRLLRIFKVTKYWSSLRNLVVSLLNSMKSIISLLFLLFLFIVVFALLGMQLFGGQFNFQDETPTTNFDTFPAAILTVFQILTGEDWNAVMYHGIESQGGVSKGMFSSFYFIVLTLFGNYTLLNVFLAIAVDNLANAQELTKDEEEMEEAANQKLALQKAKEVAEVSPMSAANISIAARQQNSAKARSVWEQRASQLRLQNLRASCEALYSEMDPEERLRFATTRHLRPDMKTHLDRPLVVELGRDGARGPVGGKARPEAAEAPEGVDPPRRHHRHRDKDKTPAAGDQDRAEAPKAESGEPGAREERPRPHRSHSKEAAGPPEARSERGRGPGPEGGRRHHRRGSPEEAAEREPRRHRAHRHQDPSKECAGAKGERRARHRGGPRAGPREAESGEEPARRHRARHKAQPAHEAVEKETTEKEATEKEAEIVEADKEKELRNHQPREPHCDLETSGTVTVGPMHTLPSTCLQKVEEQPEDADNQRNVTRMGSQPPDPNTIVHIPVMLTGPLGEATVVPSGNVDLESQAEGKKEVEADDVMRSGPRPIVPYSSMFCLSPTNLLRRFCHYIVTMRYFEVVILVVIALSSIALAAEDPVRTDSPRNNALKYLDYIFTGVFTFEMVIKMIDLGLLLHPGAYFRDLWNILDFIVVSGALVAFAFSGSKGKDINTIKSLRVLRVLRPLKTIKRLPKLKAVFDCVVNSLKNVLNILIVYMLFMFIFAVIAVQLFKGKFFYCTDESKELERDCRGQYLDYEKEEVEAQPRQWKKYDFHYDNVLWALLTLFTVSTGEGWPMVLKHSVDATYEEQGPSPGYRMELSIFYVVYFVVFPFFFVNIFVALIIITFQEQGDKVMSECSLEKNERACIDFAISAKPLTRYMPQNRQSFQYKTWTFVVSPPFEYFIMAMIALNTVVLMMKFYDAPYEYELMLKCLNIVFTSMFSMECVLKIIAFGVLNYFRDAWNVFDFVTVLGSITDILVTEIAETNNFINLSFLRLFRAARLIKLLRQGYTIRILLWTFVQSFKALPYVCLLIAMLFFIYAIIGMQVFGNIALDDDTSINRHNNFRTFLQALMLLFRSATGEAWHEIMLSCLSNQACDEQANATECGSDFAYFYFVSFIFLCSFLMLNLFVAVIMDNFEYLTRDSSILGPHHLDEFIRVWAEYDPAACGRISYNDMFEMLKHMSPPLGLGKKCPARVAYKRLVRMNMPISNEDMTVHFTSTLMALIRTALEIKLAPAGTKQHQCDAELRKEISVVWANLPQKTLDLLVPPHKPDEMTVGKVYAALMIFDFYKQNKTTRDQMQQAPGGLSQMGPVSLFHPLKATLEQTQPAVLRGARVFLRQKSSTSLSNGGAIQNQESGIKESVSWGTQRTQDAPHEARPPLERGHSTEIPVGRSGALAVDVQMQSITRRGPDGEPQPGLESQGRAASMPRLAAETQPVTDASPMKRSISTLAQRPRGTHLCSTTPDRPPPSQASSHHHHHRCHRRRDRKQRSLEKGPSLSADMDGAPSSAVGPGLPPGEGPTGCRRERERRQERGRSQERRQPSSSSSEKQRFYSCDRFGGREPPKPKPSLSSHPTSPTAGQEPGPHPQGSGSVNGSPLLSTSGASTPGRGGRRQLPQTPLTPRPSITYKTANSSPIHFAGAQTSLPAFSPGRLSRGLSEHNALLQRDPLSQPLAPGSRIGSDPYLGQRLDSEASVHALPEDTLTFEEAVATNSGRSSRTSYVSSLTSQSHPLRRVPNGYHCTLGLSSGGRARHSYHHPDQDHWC
T1 sequence (Q02410 whole entry): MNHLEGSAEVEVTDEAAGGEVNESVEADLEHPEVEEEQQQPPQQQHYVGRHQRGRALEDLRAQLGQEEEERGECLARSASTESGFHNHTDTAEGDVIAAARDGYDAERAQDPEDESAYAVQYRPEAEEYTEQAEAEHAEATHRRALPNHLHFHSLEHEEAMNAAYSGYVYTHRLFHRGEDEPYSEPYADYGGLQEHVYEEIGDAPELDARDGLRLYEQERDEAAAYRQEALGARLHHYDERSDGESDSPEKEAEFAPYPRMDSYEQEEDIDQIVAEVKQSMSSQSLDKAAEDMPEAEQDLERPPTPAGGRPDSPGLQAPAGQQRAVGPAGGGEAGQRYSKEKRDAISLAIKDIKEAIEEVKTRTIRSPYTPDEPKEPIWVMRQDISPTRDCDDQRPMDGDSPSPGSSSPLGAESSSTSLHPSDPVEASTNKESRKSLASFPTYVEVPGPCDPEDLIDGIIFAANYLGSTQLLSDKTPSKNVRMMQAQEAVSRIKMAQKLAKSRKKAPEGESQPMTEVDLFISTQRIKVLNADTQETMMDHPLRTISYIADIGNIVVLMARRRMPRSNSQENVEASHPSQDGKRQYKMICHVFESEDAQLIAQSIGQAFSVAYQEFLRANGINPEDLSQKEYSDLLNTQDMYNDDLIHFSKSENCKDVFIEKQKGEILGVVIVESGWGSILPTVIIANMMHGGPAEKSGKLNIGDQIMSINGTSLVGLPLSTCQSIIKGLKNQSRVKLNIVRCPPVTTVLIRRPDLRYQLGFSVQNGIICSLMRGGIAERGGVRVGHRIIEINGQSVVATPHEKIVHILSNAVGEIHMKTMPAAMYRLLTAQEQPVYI
Chain of Aspartyl aminopeptidase (Q8I2J3 whole entry): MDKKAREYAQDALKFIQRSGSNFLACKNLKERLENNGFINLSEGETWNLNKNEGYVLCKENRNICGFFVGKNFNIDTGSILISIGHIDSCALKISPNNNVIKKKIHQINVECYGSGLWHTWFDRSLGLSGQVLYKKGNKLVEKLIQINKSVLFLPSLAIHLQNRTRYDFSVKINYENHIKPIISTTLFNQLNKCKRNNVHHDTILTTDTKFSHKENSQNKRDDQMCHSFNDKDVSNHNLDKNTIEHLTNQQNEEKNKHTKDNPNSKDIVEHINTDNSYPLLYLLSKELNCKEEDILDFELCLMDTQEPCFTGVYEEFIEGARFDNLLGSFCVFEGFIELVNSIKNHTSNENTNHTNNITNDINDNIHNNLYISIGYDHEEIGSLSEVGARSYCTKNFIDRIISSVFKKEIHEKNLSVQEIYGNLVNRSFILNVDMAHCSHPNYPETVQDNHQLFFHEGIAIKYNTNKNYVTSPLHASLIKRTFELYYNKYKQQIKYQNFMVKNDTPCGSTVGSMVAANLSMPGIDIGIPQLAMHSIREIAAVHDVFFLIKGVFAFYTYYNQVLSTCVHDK

O=C(Nc1cccc(C(F)(F)F)c1)Nn1cnnc1
IC50 (Aspartyl aminopeptidase): 2.32 µM (active) | IC50 (Procathepsin L): > 59.6 µM (not active)

COc1cc(NC(=O)c2cccs2)ccc1NC(=O)c1cc2ccccc2o1
IC50 [1]: > 50 µM (inactive) | IC50 [2]: 11.2 µM (active)

CCC1(c2ccc(F)cc2)NC(=O)N(CC(=O)Nc2ccc(-c3nc4ccc(C)cc4s3)cc2)C1=O (stereo not drawn)
EC50 [3]: 7.37 µM (active) | AC50 (INS1): 8.98 µM (active) | EC50 [4]: 12.3 µM (active) | CC50 [5]: 15.5 µM (active) | Absolute IC50 (XBP1) (X-box-binding protein 1): 10 µM

O=C(OCc1ccc(Cl)c(Cl)c1)c1ccccn1
IC50 (cells [6]): 16.9 µM (active) | AC50 [7]: 29.3 µM (active)

CCCCCc1c(C)nc(Nc2ccccc2)nc1O
Absolute IC50 (XBP1) (X-box-binding protein 1): 10 µM

Cc1cccc2nc(CSc3nc4ccccc4[nH]3)cn12
IC50 [8]: > 100 µM (inactive)

O=C(Nc1ccc(Cl)c(Cl)c1)Nn1cnnc1
IC50 (Aspartyl aminopeptidase): 0.837 µM (active) | IC50 (Procathepsin L): > 59.6 µM (not active)

CC(C)C[C@H](NC(=O)c1[nH]cnc1C(=O)N1CCN(C(=O)OC(C)(C)C)CC1)C(=O)OC(C)(C)C
IC50 (cells [9]): 1.43 µM (active) | CC50 [5]: 13.3 µM (active) | IC50 [10]: 34.8 µM (active)

— ChEMBL document CHEMBL1201862, “PubChem BioAssay data set” (2004)
